In one series the test system is LC3-II/LC3-I. Description: In vivo autophagy activation in mouse lung tissues. The note with it: mice, 100 mg/kg po BID 3.5 days; p=0.04. The procedure: In order to evaluate for in vivo autophagy activation, nave male C57BL/6 mice were dosed orally with compound II-3 (100 mg/kg, BID, 3.5 days). One hour after the last dose, lung tissues and plasma were collected to analyze for drug concentration and autophagy biomarkers. As discussed in earlier examples, the ratio of LC3-II to LC3-I was used as autophagy biomarker. When compound II-3 was dosed orally, the parent compound (i.e. II-3) and a major metabolite (i.e. compound I-1) was detected both in the plasma and lung tissues. One hour after the last dose, the plasma concentration of the parent compound II-3 was 143.0±52.35 ng/mL and the corresponding metabolite I-1 was 741.37±170.2 ng/mL. At this time point, the mouse lung tissue concentration of the parent compound II-3 was 536.48±24.01 ng/g. The metabolite I-1 was also detected in the lung tissues, at a concentration of 411.48±164.0 ng/g. Compound II-3 was able to induce autophagy at the given dose of 100 mg/kg and the 22% increase in the ratio of LC3-II to LC3-I in the isolated lung tissues was statistically significant (p=0.04, FIG. 12).

In series [1] the test system is Pseudomona aeruginosa strain Xen05. The series is described as follows: In vitro bacterial clearance assay using human bronchial epithelial cells (16HBE). The class given is cell-based. Conditions: 16HBE cells, 25 μM. As for the experimental part:
In this assay, normal 16HBE cells were cultured and seeded at 2×10^5 cells per well using a 48-well plate. The resulting plates were incubated at 37° C. with 5% CO2 until 90% confluency. Cells were then treated with compound II-3 for 24 hours and then infected with Pseudomona aeruginosa strain Xen05 at a multiplicity of infection (MOI) of 1:50 (i.e. ratio of cells:bacteria) for 2 hours. Cells were then incubated with 500 μL of a mixture consisting non-permeable antibiotic (50 U/mL each of penicillin and streptomycin, mixed with 200 μg/mL gentamicin) for 3 hours to remove the extracellular bacteria. Afterwards, cells were lysed and a bacteria count was carried out to determine the remaining intracellular bacteria load.

Series [2] in a line: Plasma stability, rat plasma. The class given is in vitro ADME. As for the experimental part: The in vitro stability of the test compounds was studied in human, mouse, beagle and rat plasma (plasma was purchased from Bioreclamation). Plasma was diluted to 50% with PBS (pH 7.4). Test compounds were dissolved in DMSO to a final concentration of 10 mM and then diluted to 1 mM in MeOH. Incubations were carried at a test compound concentration of 5 μM with a final DMSO concentration of 2.5%. Plasma (198 μL) was added to 96-well plate and incubated at 37° C. for 30 minutes before the addition of […] of the test compound. The resulting mixture was then incubated at 37° C. for 2 hours. At appropriate time intervals (0, 30, 60 and 120 minutes), aliquots (50 μL) were removed and reactions were terminated by adding 200 μL of acetonitrile with an internal standard. Simultaneously, plasma samples containing Benflourex or Procaine (control compound) were terminated by adding 200 μL of acetonitrile internal standard. The sample plate was centrifuged at 3500 rpm for 45 minutes at 4° C. and the supernatant was transferred to a new plate for analysis by LC/MS-MS (Agilent Model No: HPLC: 1200, MS: 6410). […] A binary gradient consisting of 0.1% formic acid in water and 0.1% formic acid in methanol was used for analyte elution.

The test system of the next series is CCL2. Description: RT-PCR of CCL2 mRNA in LPS-stimulated THP-1 cells. Conditions: 25 μM, LPS stimulation. The series is classed as cell-based. The procedure:
THP-1 cells were obtained from ATCC® TIB202. THP-1 cells were maintained in RPMI1640 (Gibco® RPMI 1640) supplemented with 10% fetal bovine serum. DMEM (#11095) and fetal bovine serum (low endotoxin grade) (#10437) was obtained from Invitrogen.
Compounds II-3 and I-1 were first solubilized in 100% DMSO as 50 mM solution, and then diluted 1 to 200 in 1% BSA as a 10× stock solution of […], and series stock dilution (1 to 2 dilution) were carried out as needed. The 10× stock solution were added to the cell media and cells were incubated for 24 hours at 37° C. For LPS stimulation in THP-1 cells, compounds were added to the cell media for 6 hours at and at the end of 4 hours, 50 μg/ml final concentration of LPS (Sigma L3024) was added and cells were incubated for 2 hours. […] The total RNA was harvested, and the relative mRNA expression levels were assessed via RT-PCR with HPRT as the internal control. […] Significance was determined by student's t-test in comparison to control.
Total RNA was collected using RNeasy Plus Mini Kit (Qiagen #74136) and cDNA generated using SuperScriptIII (Invitrogen #18080-044) with random hexamers following the manufacturer's protocol. Relative mRNA expression levels were determined using TaqMan probes (Applied Biosystems, using the recommended best primer pairs) with HPRT (hypoxanthine phosphoryltransferase) as the internal control. […]

For `CC/C=C\C/C=C\C/C=C\C/C=C\C/C=C\C/C=C\CCC(=O)NCCSSC(C)(C)CNC(=O)c1cccnc1` [II-3, N-(2-((2-((4Z,7Z,10Z,13Z,16Z,19Z)-docosa-4,7,10,13,16,19-hexaenamido)ethyl)disulfanyl)-2-methylpropyl)nicotinamide], the “increase in the ratio of LC3-II to LC3-I in the isolated lung tissues” value with LC3-II/LC3-I was 22%. The “intracellular bacterial killing effect relative to positive control Cytochalasin-D” value in series [1] is on record as “comparable”. In addition, the “intracellular clearance of Pseudomona aeruginosa” value in series [1] (24 hours pre-treatment) was “effective intracellular clearance”. Moreover, the “plasma stability (parent compound remaining)” value in series [2] (rat plasma, 5 μM, 0.5, 1 and 2 hour time points) is given as “complete plasma stability”. Further, the “plasma stability compared with II-2” value in series [2] (summary of Example 17 (mouse and rat plasma)) is “better plasma stability”. Also, the “CCL2 mRNA level” value in the series on CCL2 was “marked reduction”.

Source of the values: patent publication US10251845B2, “Fatty acid cysteamine conjugates and their use as activators of autophagy” (Catabasis Pharmaceuticals, Inc., priority 2014, dated 2019).
